The source made the active and inactive calls.
Assays:
[1] = Plasma concentration in rat assessed as unchanged compound remaining at 59.2 kBq/mg, po after 4 hrs by MS/MS analysis; format: ADME, organism-based; conditions: read-out: Activity
[2] = Drug level in rat brain at 30 mg/kg, po after 2 hrs by LC/MS analysis; format: ADME, organism-based; set-up: dose 30 mg/kg, route oral; conditions: read-out: Drug uptake
[3] = system: Plasma; test: Metabolic stability in rat plasma assessed as formation of benzothiophene-3-carboxylic acid at 59.2 kBq/mg, po after 4 hrs by MS/MS analysis; format: ADME, organism-based; conditions: in vivo
[4] = Metabolic stability in rat liver microsomes assessed as compound remaining at 2 uM after 10 mins; format: ADME, Microsome; conditions: read-out: Stability
[5] = system: Mus musculus; test: Ratio of compound ED50 to topiramate ED50 for anticonvulsant activity against audiogenic seizures in ip dosed AGS mouse; format: functional
[6] = system: Rattus norvegicus; test: Anticonvulsant activity against electric stimulation-induced focal seizure in ip dosed Sprague-Dawley rat kindling model assessed as reduction of after-discharge duration administered 15 mins after last electric stimulation measured after 15 mins to 1 hr; format: functional; set-up: scale not given: the % may be the effect or the level left
[7] = Half life in mouse at 3 mg/kg, iv administered as bolus dose; format: ADME, organism-based; set-up: dose 3 mg/kg, route intravenous; conditions: in vivo
[8] = Cmax in mouse at 30 mg/kg, po administered as bolus dose; format: ADME, organism-based; set-up: dose 30 mg/kg, route oral; conditions: in vivo
[9] = target: Potassium voltage-gated channel subfamily KQT member 2 (Rattus norvegicus) (UniProt O88943); test: Activation of rat Kv7.2 assessed as increase in channel current at membrane potential of -70 to -3- mV at 300 uM by whole-cell patch-clamp technique; format: cell membranes
[10] = system: Rattus norvegicus; test: Protective index, ratio of TD50 for neurotoxicity in po dosed rat to ED50 for anticonvulsant activity against maximal electroshock-induced seizure in po dosed rat; format: functional
[11] = system: Mus musculus; test: Anticonvulsant activity against pentylenetetrazole-induced seizure in CF1 mouse assessed as increase in threshold of seizure twitch at 107 mg/kg, ip administered 15 mins before pentylenetetrazole infusion; format: functional; conditions: route intraperitoneal
[12] = Half life in human liver microsomes at 2 uM; format: ADME, Microsome
[13] = target: Carbonic anhydrase 2 (Homo sapiens, UniProt P00918); test: Inhibition of human carbonic anhydrase 2 by fluorimetric assay
[14] = Bioavailability in rat at 2 mg/kg, po; format: ADME, organism-based; conditions: in vivo
[15] = Half life in mouse at 30 mg/kg, po administered as bolus dose; format: ADME, organism-based; set-up: dose 30 mg/kg, route oral; conditions: in vivo
[16] = system: Mus musculus; test: Anticonvulsant activity against pentylenetetrazole-induced seizure in CF1 mouse assessed as increase in seizure threshold for clonus at 107 mg/kg, ip administered 15 mins before pentylenetetrazole infusion; format: functional; conditions: route intraperitoneal
[17] = target: Voltage-dependent N-type calcium channel subunit alpha-1B (Rattus norvegicus) (UniProt Q02294); test: Inhibition of rat Cav2.2 channel expressed in HEK cells assessed as depolarization-induced calcium influx by fluorescence-based assay; format: cell-based; conditions: HEK293
Voltage-dependent N-type calcium channel subunit alpha-1B (Rattus norvegicus), sequence (Q02294 whole entry, looked up): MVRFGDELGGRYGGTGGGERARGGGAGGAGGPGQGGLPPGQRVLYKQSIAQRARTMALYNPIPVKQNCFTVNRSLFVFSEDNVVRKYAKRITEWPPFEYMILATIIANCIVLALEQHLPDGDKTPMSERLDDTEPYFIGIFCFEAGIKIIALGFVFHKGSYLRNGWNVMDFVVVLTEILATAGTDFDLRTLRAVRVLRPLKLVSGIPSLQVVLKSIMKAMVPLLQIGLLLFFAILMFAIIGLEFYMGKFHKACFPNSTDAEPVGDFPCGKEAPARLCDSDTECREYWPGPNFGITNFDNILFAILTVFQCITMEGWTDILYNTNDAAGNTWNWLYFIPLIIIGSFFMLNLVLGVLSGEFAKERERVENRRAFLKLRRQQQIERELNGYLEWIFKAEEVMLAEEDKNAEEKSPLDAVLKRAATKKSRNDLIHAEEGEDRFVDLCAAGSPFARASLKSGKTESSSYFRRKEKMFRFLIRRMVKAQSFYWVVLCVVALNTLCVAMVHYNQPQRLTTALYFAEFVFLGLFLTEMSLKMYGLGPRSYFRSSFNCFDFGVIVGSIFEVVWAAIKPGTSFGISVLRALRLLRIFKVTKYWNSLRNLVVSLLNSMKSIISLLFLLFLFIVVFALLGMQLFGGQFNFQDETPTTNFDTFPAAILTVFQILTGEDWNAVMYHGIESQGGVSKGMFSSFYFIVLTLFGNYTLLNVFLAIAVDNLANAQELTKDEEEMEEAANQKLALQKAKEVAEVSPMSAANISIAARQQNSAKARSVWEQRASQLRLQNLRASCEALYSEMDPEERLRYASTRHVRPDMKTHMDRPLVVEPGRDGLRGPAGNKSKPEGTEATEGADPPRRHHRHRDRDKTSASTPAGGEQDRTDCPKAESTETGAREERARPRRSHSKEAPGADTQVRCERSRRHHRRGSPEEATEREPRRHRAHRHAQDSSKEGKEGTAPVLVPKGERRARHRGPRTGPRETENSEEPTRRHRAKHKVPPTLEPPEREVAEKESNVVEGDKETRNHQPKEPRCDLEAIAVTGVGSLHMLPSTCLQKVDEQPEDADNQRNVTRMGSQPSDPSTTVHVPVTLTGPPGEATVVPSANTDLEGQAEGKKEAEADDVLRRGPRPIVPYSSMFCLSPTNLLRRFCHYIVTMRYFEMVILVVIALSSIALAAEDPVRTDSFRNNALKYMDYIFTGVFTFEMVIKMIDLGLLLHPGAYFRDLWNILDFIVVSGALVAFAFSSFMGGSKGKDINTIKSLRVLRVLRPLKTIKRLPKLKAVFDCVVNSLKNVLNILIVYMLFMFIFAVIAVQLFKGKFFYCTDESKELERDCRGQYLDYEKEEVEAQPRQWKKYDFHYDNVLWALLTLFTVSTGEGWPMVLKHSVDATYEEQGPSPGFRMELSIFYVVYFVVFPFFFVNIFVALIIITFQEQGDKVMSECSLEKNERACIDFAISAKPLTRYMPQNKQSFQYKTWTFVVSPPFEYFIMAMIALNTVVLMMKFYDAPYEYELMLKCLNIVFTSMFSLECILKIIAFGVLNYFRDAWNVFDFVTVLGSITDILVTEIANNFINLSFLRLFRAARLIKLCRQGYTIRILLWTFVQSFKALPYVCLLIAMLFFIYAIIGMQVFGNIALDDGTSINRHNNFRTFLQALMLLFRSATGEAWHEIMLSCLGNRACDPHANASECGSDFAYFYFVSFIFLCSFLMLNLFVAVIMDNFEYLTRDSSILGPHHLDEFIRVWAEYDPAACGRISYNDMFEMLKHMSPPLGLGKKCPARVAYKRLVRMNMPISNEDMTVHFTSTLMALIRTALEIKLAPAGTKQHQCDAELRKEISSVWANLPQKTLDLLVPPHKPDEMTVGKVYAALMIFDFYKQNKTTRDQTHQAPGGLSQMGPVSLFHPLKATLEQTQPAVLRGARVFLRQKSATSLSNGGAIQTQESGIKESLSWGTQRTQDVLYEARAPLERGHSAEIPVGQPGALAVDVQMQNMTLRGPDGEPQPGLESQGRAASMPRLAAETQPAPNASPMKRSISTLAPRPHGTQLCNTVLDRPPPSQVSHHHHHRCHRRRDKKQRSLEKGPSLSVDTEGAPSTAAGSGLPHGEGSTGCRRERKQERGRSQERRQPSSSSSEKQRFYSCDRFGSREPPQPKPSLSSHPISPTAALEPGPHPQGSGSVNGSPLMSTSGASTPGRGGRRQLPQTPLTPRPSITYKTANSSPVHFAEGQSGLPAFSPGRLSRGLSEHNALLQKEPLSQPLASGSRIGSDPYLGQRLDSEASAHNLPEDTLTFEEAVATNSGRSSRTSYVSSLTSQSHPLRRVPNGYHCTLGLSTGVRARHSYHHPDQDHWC

[18] = Neurotoxicity in po dosed rat assessed as motor impairment by rotarod test; format: toxicity, organism-based; conditions: in vivo
[19] = system: Mus musculus; test: Anticonvulsant activity against pentylenetetrazole-induced seizure in CF1 mouse assessed as increase in seizure threshold for clonus at 182 mg/kg, ip administered 15 mins before pentylenetetrazole infusion; format: functional; conditions: route intraperitoneal
[20] = Metabolic stability in rat urine assessed as formation of biotransformation product N-[(1-oxido-1-benzothien-3-yl)methyl]sulfamide at 500 mg, po up to 24 hrs by MS/MS analysis; format: ADME, organism-based; conditions: in vivo
[21] = system: Mus musculus; test: Anticonvulsant activity against maximal electroshock-induced seizure in po dosed CF1 mouse after 3 hrs; format: functional
[22] = system: Mus musculus; test: Anticonvulsant activity against maximal electroshock-induced seizure in po dosed CF1 mouse after 1 hr; format: functional; conditions: Mus musculus, CF1, po, 1 h; read-out: ED50
[23] = Plasma concentration in rat at 30 mg/kg, po after 2 hrs by LC/MS analysis; format: ADME, organism-based; set-up: dose 30 mg/kg, route oral
[24] = Neurotoxicity in ip dosed mouse assessed as motor impairment by rotarod test; format: toxicity, organism-based; conditions: in vivo
[25] = system: Mus musculus; test: Anticonvulsant activity against pentylenetetrazole-induced seizure in ip dosed CF1 mouse after 0.25 hrs; format: functional; conditions: Mus musculus, CF1, ip, 0.25 h; read-out: ED50
[26] = Metabolic stability in rat urine assessed as formation of benzothiophene-3-carboxylic acid at 59.2 kBq/mg, po after 8 to 24 hrs by MS/MS analysis; format: ADME, organism-based; conditions: in vivo
[27] = Metabolic stability in rat urine assessed as formation of N-[(1-oxido-1-benzothien-3-yl)methyl]sulfamide at 59.2 kBq/mg, po after 24 hrs by MS/MS analysis; format: ADME, organism-based; conditions: in vivo
[28] = system: Mus musculus; test: Total body water content in mouse at 30 mg/kg, po and 3 mg/kg, iv administered as bolus dose; format: ADME, organism-based; conditions: in vivo
[29] = Metabolic stability in rat urine assessed as formation of [(Benzo[b]thiophene-3-carbonyl)-amino]-acetic acid at 59.2 kBq/mg, po after 8 to 24 hrs by MS/MS analysis; format: ADME, organism-based; conditions: in vivo
[30] = system: Mus musculus; test: Anticonvulsant activity against bicuculline-induced seizure in ip dosed CF1 mouse after 0.25 hrs; format: functional; conditions: Mus musculus, CF1, ip, 0.25 h; read-out: ED50
[31] = target: Voltage-dependent N-type calcium channel subunit alpha-1B (Rattus norvegicus, UniProt Q02294); test: (§1) Inhibition of rat Cav2.2 channel expressed in 0.07 Hz frequency-stimulated HEK cells by whole-cell patch-clamp technique; format: cell-based, HEK293
Voltage-dependent N-type calcium channel subunit alpha-1B, sequence (Q02294 whole entry): as the sequence (Q02294 whole entry, looked up) above

[32] = target: Voltage-dependent N-type calcium channel subunit alpha-1B (Rattus norvegicus) (UniProt Q02294); test: as §1; format: cell-based; conditions: HEK293
[33] = species on record: Mus musculus; test: Activation of GABA receptor in mouse cortical neuron assessed as increase in GABA-induced receptor current at 100 uM by whole-cell patch-clamp technique
[34] = Metabolic stability in mouse liver microsomes assessed as compound remaining at 2 uM after 10 mins; format: ADME, Microsome; conditions: read-out: Stability
[35] = system: Mus musculus; test: Anticonvulsant activity against picrotoxin-induced seizure in ip dosed CF1 mouse after 0.25 hrs; format: functional
[36] = system: Plasma; test: Metabolic stability in rat plasma assessed as formation of N-[(1-oxido-1-benzothien-3-yl)methyl]sulfamide at 59.2 kBq/mg, po after 4 hrs by MS/MS analysis; format: ADME, organism-based; conditions: in vivo
[37] = system: Plasma; test: Metabolic stability in rat plasma assessed as formation of biotransformation product N-[(1-oxido-1-benzothien-3-yl)methyl]sulfamide at 500 mg, po up to 72 hrs by MS/MS analysis; format: ADME, organism-based; conditions: in vivo
[38] = system: Mus musculus; test: Anticonvulsant activity against pentylenetetrazole-induced seizure in CF1 mouse assessed as increase in threshold of seizure twitch at 182 mg/kg, ip administered 15 mins before pentylenetetrazole infusion; format: functional; conditions: route intraperitoneal
[39] = target: Voltage-dependent N-type calcium channel subunit alpha-1B (Rattus norvegicus) (UniProt Q02294); test: Inhibition of rat Cav2.2 channel expressed in 0.07 Hz frequency-stimulated HEK cells at 30 uM by whole-cell patch-clamp technique; format: cell-based; conditions: HEK293
[40] = system: Rattus norvegicus; test: Total body water content in rat at 2 mg/kg, iv; format: ADME, organism-based; set-up: dose 2 mg/kg, route intravenous; conditions: in vivo
[41] = target: Sodium channel protein type 2 subunit alpha (Rattus norvegicus) (UniProt P04775); test: (§2) Inhibition of rat Nav1.2 channel expressed in chinese hamster CHL1610 cells at preconditioning pulse of -67 mV after 2 to 3 mins by whole-cell patch-clamp technique; format: cell-based
Sodium channel protein type 2 subunit alpha (Rattus norvegicus), sequence (P04775 whole entry, looked up): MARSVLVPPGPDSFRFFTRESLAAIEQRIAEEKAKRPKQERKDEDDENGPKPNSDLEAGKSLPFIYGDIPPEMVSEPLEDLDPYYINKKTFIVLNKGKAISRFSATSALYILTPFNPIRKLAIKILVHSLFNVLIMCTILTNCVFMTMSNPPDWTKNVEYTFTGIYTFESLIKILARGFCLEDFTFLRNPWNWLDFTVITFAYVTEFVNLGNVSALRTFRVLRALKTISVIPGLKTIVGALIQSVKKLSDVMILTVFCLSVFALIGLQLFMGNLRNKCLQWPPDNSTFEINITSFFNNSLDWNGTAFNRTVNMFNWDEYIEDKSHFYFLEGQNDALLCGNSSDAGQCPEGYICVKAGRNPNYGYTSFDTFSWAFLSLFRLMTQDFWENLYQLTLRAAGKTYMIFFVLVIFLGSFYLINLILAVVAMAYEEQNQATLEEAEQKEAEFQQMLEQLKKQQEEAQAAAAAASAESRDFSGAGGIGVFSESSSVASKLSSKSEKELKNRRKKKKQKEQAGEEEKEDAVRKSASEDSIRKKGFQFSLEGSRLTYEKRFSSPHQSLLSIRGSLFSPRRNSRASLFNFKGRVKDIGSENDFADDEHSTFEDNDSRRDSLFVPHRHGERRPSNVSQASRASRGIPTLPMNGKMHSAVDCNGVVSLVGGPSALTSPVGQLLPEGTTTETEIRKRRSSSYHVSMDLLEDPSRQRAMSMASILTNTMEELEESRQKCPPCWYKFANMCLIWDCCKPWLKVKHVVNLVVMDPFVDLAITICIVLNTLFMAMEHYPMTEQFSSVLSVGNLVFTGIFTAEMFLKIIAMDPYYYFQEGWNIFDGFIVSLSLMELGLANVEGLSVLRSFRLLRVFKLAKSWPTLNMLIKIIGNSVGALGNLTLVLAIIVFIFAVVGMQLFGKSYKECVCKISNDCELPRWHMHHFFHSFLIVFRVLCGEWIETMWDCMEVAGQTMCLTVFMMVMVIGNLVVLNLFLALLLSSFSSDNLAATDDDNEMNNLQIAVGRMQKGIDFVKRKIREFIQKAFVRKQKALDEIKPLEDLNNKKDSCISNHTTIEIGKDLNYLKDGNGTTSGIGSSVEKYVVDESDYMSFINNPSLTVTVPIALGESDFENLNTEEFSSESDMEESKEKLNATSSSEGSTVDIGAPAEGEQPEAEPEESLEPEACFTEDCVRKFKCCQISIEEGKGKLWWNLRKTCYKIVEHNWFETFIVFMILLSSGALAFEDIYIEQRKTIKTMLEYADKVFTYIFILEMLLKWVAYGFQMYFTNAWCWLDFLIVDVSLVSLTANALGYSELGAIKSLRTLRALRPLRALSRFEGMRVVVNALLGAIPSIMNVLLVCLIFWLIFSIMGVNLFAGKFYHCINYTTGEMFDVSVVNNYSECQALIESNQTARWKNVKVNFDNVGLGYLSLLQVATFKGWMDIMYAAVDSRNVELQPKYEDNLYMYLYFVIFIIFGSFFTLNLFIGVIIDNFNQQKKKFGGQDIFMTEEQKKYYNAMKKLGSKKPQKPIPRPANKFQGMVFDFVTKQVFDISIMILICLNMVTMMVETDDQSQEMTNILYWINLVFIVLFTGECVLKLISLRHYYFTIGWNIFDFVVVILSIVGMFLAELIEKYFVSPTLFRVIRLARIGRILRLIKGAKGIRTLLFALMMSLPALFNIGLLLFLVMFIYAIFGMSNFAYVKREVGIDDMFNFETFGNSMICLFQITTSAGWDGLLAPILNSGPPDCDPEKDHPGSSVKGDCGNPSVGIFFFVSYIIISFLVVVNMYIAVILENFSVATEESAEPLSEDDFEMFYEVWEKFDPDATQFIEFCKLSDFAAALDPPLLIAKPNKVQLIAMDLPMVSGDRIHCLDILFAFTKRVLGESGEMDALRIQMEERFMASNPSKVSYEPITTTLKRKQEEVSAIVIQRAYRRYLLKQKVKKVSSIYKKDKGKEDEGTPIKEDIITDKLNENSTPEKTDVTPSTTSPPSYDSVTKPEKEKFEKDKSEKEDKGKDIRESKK

[42] = target: Sodium channel protein type 2 subunit alpha (Rattus norvegicus, UniProt P04775); test: as §2; format: cell-based
Sodium channel protein type 2 subunit alpha, sequence (P04775 whole entry): as the sequence (P04775 whole entry, looked up) above

[43] = Volume of distribution at steady state in mouse at 30 mg/kg, po and 3 mg/kg, iv administered as bolus dose; format: ADME, organism-based; conditions: in vivo, read-out: Vdss
[44] = species on record: Mus musculus; test: Inhibition of NMDA receptor in mouse cortical neuron assessed as inhibition of glycine-induced receptor current at 100 uM by whole-cell patch-clamp technique
[45] = Metabolic stability in human liver microsomes assessed as compound remaining at 2 uM after 10 mins; format: ADME, Microsome; conditions: read-out: Stability
[46] = system: Mus musculus; test: Anticonvulsant activity against audiogenic seizures in ip dosed AGS mouse assessed as inhibition of hindlimb tonic extension administered 1 hr prior to 11 kHz sound induction; format: functional; conditions: Mus musculus, AGS, Hindlimb, ip; read-out: ED50
[47] = target: Sodium channel protein type 2 subunit alpha (Rattus norvegicus) (UniProt P04775); test: Inhibition of rat Nav1.2 channel expressed in chinese hamster CHL1610 cells at preconditioning pulse of -107 mV after 2 to 3 mins by whole-cell patch-clamp technique; format: cell-based
[48] = Bioavailability in rat at 10 mg/kg, po; format: ADME, organism-based; conditions: in vivo
[49] = Clearance in mouse at 30 mg/kg, po and 3 mg/kg, iv administered as bolus dose; format: ADME, organism-based; conditions: in vivo
[50] = target: Carbonic anhydrase 1 (Homo sapiens, UniProt P00915); test: Inhibition of carbonic anhydrase 1
Carbonic anhydrase 1, sequence (P00915 whole entry): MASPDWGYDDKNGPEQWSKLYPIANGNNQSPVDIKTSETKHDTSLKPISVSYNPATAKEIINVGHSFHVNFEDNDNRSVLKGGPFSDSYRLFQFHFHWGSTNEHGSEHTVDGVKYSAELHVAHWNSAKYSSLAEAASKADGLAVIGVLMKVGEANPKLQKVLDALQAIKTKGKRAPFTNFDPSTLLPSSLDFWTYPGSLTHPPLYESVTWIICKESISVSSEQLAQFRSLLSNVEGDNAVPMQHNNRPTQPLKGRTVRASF

[51] = target: Voltage-dependent N-type calcium channel subunit alpha-1B (Rattus norvegicus) (UniProt Q02294); test: Inhibition of rat Cav2.2 channel expressed in 5 Hz frequency-stimulated HEK cells at 30 uM by whole-cell patch-clamp technique; format: cell-based; conditions: HEK293
[52] = Bioavailability in mouse at 30 mg/kg, po and 3 mg/kg, iv administered as bolus dose; format: ADME, organism-based; conditions: in vivo
[53] = system: Rattus norvegicus; test: Anticonvulsant activity against maximal electroshock-induced seizure in po dosed Sprague-Dawley rat after 2 hrs; format: functional; conditions: Rattus norvegicus, Sprague-Dawley, po, 2 h; read-out: ED50
[54] = species on record: Mus musculus; test: Inhibition of kainate receptor in mouse cortical neuron assessed as inhibition of kainic acid-induced receptor current at 100 uM by whole-cell patch-clamp technique
[55] = Ratio of drug level in brain to plasma in rat at 30 mg/kg, po up to 6 hrs; format: ADME, organism-based; set-up: dose 30 mg/kg, route oral; conditions: brain and plasma, read-out: BPR

NS(=O)(=O)NCc1csc2ccccc12
remaining at 4 h [1]: 60% | concentration at 2 h [2]: 47 µM | Activity [3]: 9% | remaining at 10 min, 2 µM [4]: 76% | Ratio ED50 [5]: 5 | Activity [6]: 64% | half-life [7]: 1.5 h | Cmax [8]: 3900 ng/mL | Activity [9]: inactive | Ratio TD50/ED50 [10]: >15 | Activity [11]: 129% | half-life at 2 µM [12]: > 1.67 h | IC50 [13]: 66 µM | bioavailability [14]: 89% | half-life [15]: 1.5 h | Activity [16]: 147% | inhibition [17]: Dose-dependent effect | TD50 [18]: > 500 mg/kg | Activity [19]: 159% | Activity [20]: 46% | ED50 [21]: 119 mg/kg | ED50 [22]: 107 mg/kg | concentration at 2 h [23]: 19 µM | TD50 [24]: 182 mg/kg | ED50 [25]: 161 mg/kg | Activity [26]: 0.5% | Activity [27]: 48% | Activity [28]: 725 mL/kg | Activity [29]: 4.2% | ED50 [30]: 156 mg/kg | IC50 [31]: 133 µM | inhibition [32]: Dose-dependent effect | inhibition [33]: 2% | remaining at 10 min, 2 µM [34]: 83% | ED50 [35]: 106 mg/kg | Activity [36]: 31% | Activity [37]: 78% | Activity [38]: 141% | inhibition [39]: 20% | Activity [40]: 670 mL/kg | inhibition [41]: Dose-dependent effect | IC50 [42]: 48 µM | Vd [43]: 2.9 L/kg | inhibition [44]: 23% | remaining at 10 min, 2 µM [45]: 90% | ED50 [46]: 21 mg/kg | inhibition [47]: inactive | bioavailability [48]: 96% | clearance [49]: 30 mL/min/kg | IC50 [50]: 25 µM | inhibition [51]: 30% | bioavailability [52]: 59% | ED50 [53]: 34 mg/kg | inhibition [54]: 8% | Kp at 6 h [55]: 2.5

Source: ChEMBL document CHEMBL1153762, “Novel, broad-spectrum anticonvulsants containing a sulfamide group: advancement of N-((benzo[b]thien-3-yl)methyl)sulfamide (JNJ-26990990) into human clinical studies” (J Med Chem, 2009)
